These results are taken from PubChem BioAssay (NCI).

Values joined by “and” are separate entries in the source; they are usually repeats but may differ in a detail not shown here. Identical values can stand only once.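 Tested at 5 concentrations; 48 h exposure; 96-well plates; endpoints linearly interpolated, else capped at highest concentration. At the GI50, growth is halved. TGI: total growth inhibition.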

Some test systems named below: A498 renal; A549 NSCLC; MOLT-4 leukemia; NCI-H226 lung; NCI-H460 lung; OVCAR-3 ovarian; SK-MEL-28 melanoma; SK-MEL-5 melanoma; SK-OV-3 ovarian; UO-31 renal.
Common to all, as to experiment: NCI anticancer screen, dose series, 48 h

For `O=C(CCCCCCc1nc2ccc(Br)cc2[nH]1)NO`, the GI50 in the assay on A498 renal was 0.723 µM; in the assay with A549 NSCLC, 0.578 µM; with MOLT-4 leukemia, 0.342 µM; in the assay on NCI-H226 lung, 1.65 µM; in the assay on NCI-H460 lung, 0.386 µM; with OVCAR-3 ovarian it was 0.313 µM. Further, the GI50 was 0.703 µM in the assay on SK-MEL-28 melanoma, 0.328 µM with SK-MEL-5 melanoma, 0.628 µM in the assay with SK-OV-3 ovarian and 0.433 µM in the assay on UO-31 renal. The TGI in the assay on A498 renal is 2.1 µM; in the assay with A549 NSCLC it was 11.3 µM; in the assay on MOLT-4 leukemia, > 100 µM; in the assay with NCI-H226 lung it was 7.37 µM; with NCI-H460 lung it was 10.6 µM; in the assay on OVCAR-3 ovarian, 1.61 µM. Further, the TGI in the assay on SK-MEL-28 melanoma worked out at 2.75 µM; in the assay with SK-MEL-5 melanoma, 1.38 µM; with SK-OV-3 ovarian, 3.52 µM; in the assay on UO-31 renal it was 5.22 µM.

For the molecule `Cc1ccc(CCC(=O)Nc2ncc(Cc3cc(Cl)ccc3Cl)s2)o1`, the GI50 is 0.171 µM with A498 renal; 0.376 µM in the assay with A549 NSCLC; 0.222 µM in the assay on MOLT-4 leukemia; 0.901 µM in the assay on NCI-H226 lung; 0.233 µM in the assay on NCI-H460 lung; 0.172 µM in the assay with OVCAR-3 ovarian. Moreover, the GI50 is 1.54 µM with SK-MEL-28 melanoma, 0.0804 µM in the assay with SK-MEL-5 melanoma, 0.399 µM with SK-OV-3 ovarian and 0.594 µM in the assay on UO-31 renal. Besides, the TGI was 0.801 µM in the assay with A498 renal; > 58.8 µM with A549 NSCLC; > 44.2 µM with MOLT-4 leukemia; 1.36 µM in the assay with OVCAR-3 ovarian; > 100 µM in the assay with SK-MEL-28 melanoma; 5.96 µM with SK-MEL-5 melanoma. The TGI is > 100 µM in the assay with SK-OV-3 ovarian and 6.43 µM in the assay on UO-31 renal.

`C1=C[C@@H]2c3ccc4cnccc4c3NC[C@@H]2C1`: the TGI in the assay on A498 renal, with A549 NSCLC, in the assay with MOLT-4 leukemia, in the assay with NCI-H226 lung, with NCI-H460 lung and in the assay on OVCAR-3 ovarian was > 100 µM in each case. Further, the TGI in the assay on SK-MEL-28 melanoma, with SK-MEL-5 melanoma, with SK-OV-3 ovarian and in the assay on UO-31 renal was > 100 µM each time.

Regarding `COC(=O)C1=Cc2cc3c(cc2[C@H](c2ccc4c(c2)OCO4)C1C(=O)OC)OCO3` (stereo partly drawn), the TGI is 74 µM in the assay with A498 renal; > 100 µM in the assay with A549 NSCLC; > 100 µM in the assay on MOLT-4 leukemia; > 100 µM with NCI-H226 lung; > 100 µM with NCI-H460 lung; > 100 µM in the assay with OVCAR-3 ovarian. Moreover, the TGI in the assay with SK-MEL-28 melanoma, with SK-MEL-5 melanoma, with SK-OV-3 ovarian and in the assay on UO-31 renal was > 100 µM each time.

Turning to `O=C1CCC/C=C\C[C@H]2C=C(Cl)C(=O)/C2=C/C[C@H](CCCCC(F)(F)F)OC(=O)CCC/C=C\C[C@H]2C=C(Cl)C(=O)/C2=C/C[C@H](CCCCC(F)(F)F)O1`, the GI50 in the assay on A498 renal was 0.965 µM; with A549 NSCLC it was 0.429 µM; in the assay with MOLT-4 leukemia, 0.24 µM; with NCI-H226 lung, 0.263 µM; with NCI-H460 lung, 0.257 µM; in the assay with OVCAR-3 ovarian, 0.19 µM. Further, the GI50 was 0.166 µM in the assay with SK-MEL-28 melanoma, 0.412 µM with SK-MEL-5 melanoma, 1.72 µM in the assay with SK-OV-3 ovarian and 0.133 µM in the assay with UO-31 renal. For the same molecule, the TGI in the assay on A498 renal amounted to 2.12 µM; in the assay with A549 NSCLC, 2.61 µM; in the assay with MOLT-4 leukemia it was 1.6 µM; in the assay on NCI-H226 lung, 1.23 µM; in the assay on NCI-H460 lung, 1.03 µM; in the assay with OVCAR-3 ovarian, 0.485 µM. Also, the TGI is 0.419 µM in the assay with SK-MEL-28 melanoma, 1.37 µM in the assay on SK-MEL-5 melanoma, 5.17 µM in the assay on SK-OV-3 ovarian and 0.281 µM in the assay with UO-31 renal.

As to `Cc1cc(Cl)n2c(nc3ccccc32)c1C#N`, the GI50 with A498 renal was 4.18 µM; in the assay with A549 NSCLC it was 0.385 µM; in the assay with MOLT-4 leukemia, 1.06 µM; with NCI-H226 lung it was 1.54 µM; in the assay with NCI-H460 lung, 0.6 µM; in the assay with OVCAR-3 ovarian, 0.583 µM. The GI50 with SK-MEL-28 melanoma was 1.4 µM; with SK-MEL-5 melanoma, 0.573 µM; with SK-OV-3 ovarian, 3.81 µM; with UO-31 renal it was 0.333 µM. The TGI in the assay on A498 renal is 17.7 µM; in the assay with A549 NSCLC, 7.43 µM; in the assay with MOLT-4 leukemia, 22.8 µM; with NCI-H226 lung, 10 µM; in the assay on NCI-H460 lung it was 8.9 µM; in the assay with OVCAR-3 ovarian, 1.86 µM. Further, the TGI is 6.34 µM in the assay with SK-MEL-28 melanoma, 3.45 µM in the assay on SK-MEL-5 melanoma, 15.6 µM in the assay on SK-OV-3 ovarian and 1.68 µM with UO-31 renal.

For `CCN(CC)CCN(C)CC(C)(C)C(=O)/C=C/c1ccccc1`, the TGI in the assay on A498 renal was 17.3 µM; in the assay with A549 NSCLC, 47.2 µM; in the assay on MOLT-4 leukemia, 30.5 µM; with NCI-H226 lung, 32.4 µM; with NCI-H460 lung, 20.3 µM; in the assay with OVCAR-3 ovarian, 26.2 µM. Moreover, the TGI is 30.3 µM in the assay on SK-MEL-28 melanoma, 27.3 µM in the assay on SK-MEL-5 melanoma, 26.6 µM with SK-OV-3 ovarian and 26.2 µM with UO-31 renal.

Turning to `O=C(Nc1ccc(Cl)cc1)NS(=O)(=O)c1ccc2c(c1)CCC2`, the GI50 in the assay with A498 renal is 19.1 mg/L; with A549 NSCLC, 11.9 mg/L; with MOLT-4 leukemia, 19.7 mg/L; with NCI-H226 lung, 24.1 mg/L; in the assay on NCI-H460 lung, 7.71 mg/L; with OVCAR-3 ovarian it was 5.61 mg/L. Also, the GI50 in the assay on SK-MEL-28 melanoma was 20.1 mg/L; in the assay on SK-MEL-5 melanoma it was 20.6 mg/L; in the assay with SK-OV-3 ovarian, 18 mg/L; with UO-31 renal, 21.5 mg/L. The TGI in the assay on A498 renal is > 100 µM and 38 µg/mL; with A549 NSCLC, 97.7 µM and 31.3 µg/mL; in the assay on MOLT-4 leukemia, 98.2 µM and 74.6 µg/mL; in the assay with NCI-H226 lung, > 77.8 µM and 52.5 µg/mL; in the assay on NCI-H460 lung it was > 46.4 µM and 36.6 µg/mL; in the assay on OVCAR-3 ovarian it was 73.8 µM and 21.4 µg/mL. Further, the TGI was > 100 µM and 39.3 µg/mL in the assay with SK-MEL-28 melanoma; > 74 µM and 40 µg/mL with SK-MEL-5 melanoma; 86.1 µM and 41.9 µg/mL in the assay with SK-OV-3 ovarian; > 76.3 µM and 42 µg/mL in the assay on UO-31 renal.

Regarding `COc1ccc(C(=O)c2cc3c(N)c(C(=O)Nc4cccc(Cl)c4)sc3nc2C)cc1`, the GI50 in the assay with A498 renal was 0.821 µM; with A549 NSCLC, 1.67 µM; with MOLT-4 leukemia, 1.89 µM; with NCI-H226 lung it was 16 µM; in the assay with NCI-H460 lung, 1.12 µM; in the assay on OVCAR-3 ovarian, 1.01 µM. Further, the GI50 with SK-MEL-28 melanoma was 3.03 µM; in the assay with SK-MEL-5 melanoma, 0.92 µM; in the assay with SK-OV-3 ovarian, 1.58 µM; in the assay with UO-31 renal, 2.5 µM. Also, the TGI in the assay with A498 renal was > 33.3 µM; with A549 NSCLC, > 33.3 µM; in the assay on MOLT-4 leukemia, > 33.3 µM; in the assay with NCI-H226 lung, > 33.3 µM; in the assay with NCI-H460 lung, > 33.3 µM; in the assay with OVCAR-3 ovarian, 3.12 µM. Also, the TGI was > 33.3 µM in the assay with SK-MEL-28 melanoma, 2.6 µM in the assay on SK-MEL-5 melanoma, > 33.3 µM in the assay with SK-OV-3 ovarian and > 33.3 µM with UO-31 renal.
